From patent US12595266B2, “Pesticidally active heterocyclic derivatives with sulfur containing substituents” (SYNGENTA CROP PROTECTION AG, priority 2020, dated 2026)

Tests used:
Type in all cases: in vivo
[1] = system: Bemisia tabaci (Cotton White Fly); test: Activity against Bemisia tabaci (cotton white fly), feeding/contact activity; conditions: foliar, 144 h, application rate of 200 ppm, cotton leaf discs sprayed, adult white flies, 6 days after incubation
Protocol: Example B1: Activity Against Bemisia tabaci (Cotton White Fly) Feeding/Contact Activity
Cotton leaf discs were placed on agar in 24-well microtiter plates and sprayed with aqueous test solutions prepared from 10′000 ppm DMSO stock solutions. After drying the leaf discs were infested with adult white flies. The samples were checked for mortality 6 days after incubation.

[2] = system: Chilo suppressalis (Striped Rice Stemborer); test: Activity against Chilo suppressalis (striped rice stemborer); conditions: 144 h, application rate of 200 ppm, artificial diet, L2 larvae, 6 days after infestation, read-out: control (at least one of mortality, anti-feedant effect, growth inhibition)
Protocol: Example B2: Activity Against Chilo suppressalis (Striped Rice Stemborer)
24-well microtiter plates with artificial diet were treated with aqueous test solutions prepared from 10′000 ppm DMSO stock solutions by pipetting. After drying, the plates were infested with L2 larvae (6-8 per well). The samples were assessed for mortality, anti-feeding effect, and growth inhibition in comparison to untreated samples 6 days after infestation. Control of Chilo suppressalis by a test sample is given when at least one of the categories mortality, anti-feedant effect, and growth inhibition is higher than the untreated sample.

[3] = system: Plutella xylostella (Diamond Back Moth); test: Activity against Plutella xylostella (diamond back moth); conditions: 192 h, application rate of 200 ppm, artificial diet, Plutella eggs, 8 days after infestation, read-out: effect in at least one of the two categories (mortality or growth inhibition)
Protocol: Example B7: Activity Against Plutella xylostella (Diamond Back Moth)
24-well microtiter plates with artificial diet were treated with aqueous test solutions prepared from 10′000 ppm DMSO stock solutions by pipetting. After drying, Plutella eggs were pipetted through a plastic stencil onto a gel blotting paper and the plate was closed with it. The samples were assessed for mortality and growth inhibition in comparison to untreated samples 8 days after infestation.

[4] = system: Spodoptera littoralis (Egyptian Cotton Leaf Worm); test: Activity against Spodoptera littoralis (Egyptian cotton leaf worm); conditions: foliar, 72 h, application rate of 200 ppm, cotton leaf discs sprayed, L1 larvae, 3 days after infestation, read-out: control (at least one of mortality, anti-feedant effect, growth inhibition)
Protocol: Example B8: Activity Against Spodoptera littoralis (Egyptian Cotton Leaf Worm)
Cotton leaf discs were placed onto agar in 24-well microtiter plates and sprayed with aqueous test solutions prepared from 10′000 ppm DMSO stock solutions. After drying the leaf discs were infested with five L1 larvae. The samples were assessed for mortality, anti-feeding effect, and growth inhibition in comparison to untreated samples 3 days after infestation. Control of Spodoptera littoralis by a test sample is given when at least one of the categories mortality, anti-feedant effect, and growth inhibition is higher than the untreated sample.

[5] = system: Carpocapsa (Cydia) Pomonella (Codling Moth); test: Activity against Carpocapsa (Cydia) pomonella (codling moth), larvicide, feeding/contact; conditions: 336 h, application rate of 12.5 ppm, paraffin-coated diet cubes sprayed, L1 larvae, 14 days after infestation, 26-27° C.
Protocol: Example B10: Activity Against Carpocapsa (Cydia) Pomonella (Codling Moth) Larvicide, Feeding/Contact
Diet cubes coated with paraffin were sprayed with diluted test solutions in an application chamber. After drying off the treated cubes (10 replicates) were infested with 1 L1 larvae. Samples were incubated at 26-27° C. and checked 14 days after infestation for mortality and growth inhibition.

[6] = system: Diabrotica balteata (Corn Root Worm); test: Activity against Diabrotica balteata (corn root worm); conditions: 96 h, application rate of 200 ppm, maize sprouts sprayed, L2 larvae, 4 days after infestation, read-out: effect in at least one of the two categories (mortality or growth inhibition)
Protocol: Example B3: Activity Against Diabrotica balteata (Corn Root Worm)
Maize sprouts placed onto an agar layer in 24-well microtiter plates were treated with aqueous test solutions prepared from 10′000 ppm DMSO stock solutions by spraying. After drying, the plates were infested with L2 larvae (6 to 10 per well). The samples were assessed for mortality and growth inhibition in comparison to untreated samples 4 days after infestation.

[7] = system: Euschistus heros (Neotropical Brown Stink Bug); test: Activity against Euschistus heros (neotropical brown stink bug); conditions: 120 h, application rate of 200 ppm, soybean leaves sprayed, N2 nymphs, 5 days after infestation, read-out: effect in at least one of the two categories (mortality or growth inhibition)
Protocol: Example B4: Activity Against Euschistus heros (Neotropical Brown Stink Bug)
Soybean leaves on agar in 24-well microtiter plates were sprayed with aqueous test solutions prepared from 10′000 ppm DMSO stock solutions. After drying the leaves were infested with N2 nymphs. The samples were assessed for mortality and growth inhibition in comparison to untreated samples 5 days after infestation.

[8] = system: Myzus persicae (Green Peach Aphid); test: Activity against Myzus persicae (green peach aphid), feeding/contact activity; conditions: foliar, 144 h, application rate of 200 ppm, sunflower leaf discs sprayed, aphid population of mixed ages, 6 days after infestation
Protocol: Example B6: Activity Against Myzus persicae (Green Peach Aphid) Feeding/Contact Activity
Sunflower leaf discs were placed onto agar in a 24-well microtiter plate and sprayed with aqueous test solutions prepared from 10′000 ppm DMSO stock solutions. After drying, the leaf discs were infested with an aphid population of mixed ages. The samples were assessed for mortality 6 days after infestation.

[9] = system: Myzus persicae (Green Peach Aphid); test: Activity against Myzus persicae (green peach aphid), systemic activity; conditions: 144 h, test rate of 24 ppm, roots of infested pea seedlings in test solution (systemic), 6 days
Protocol: Example B9: Activity Against Myzus persicae (Green Peach Aphid) Systemic Activity
Roots of pea seedlings infested with an aphid population of mixed ages were placed directly into aqueous test solutions prepared from 10′000 DMSO stock solutions. The samples were assessed for mortality 6 days after placing seedlings into test solutions.

CCS(=O)(=O)c1cc(C(C)(F)F)cnc1N1Cc2cc3c(cc2C1=O)OC(F)(F)O3 [Compound P23, 6-[5-(1,1-difluoroethyl)-3-ethylsulfonyl-2-pyridyl]-2,2-difluoro-5H-[1,3]dioxolo[4,5-f]isoindol-7-one]
≥ 80%: mortality at 200 ppm [1] | percent control (mortality, anti-feedant effect or growth inhibition) at 200 ppm [2] | percent effect (mortality or growth inhibition) at 200 ppm [3] | percent control (mortality, anti-feedant effect or growth inhibition) at 200 ppm [4] | mortality at 12.5 ppm [5]

CCS(=O)(=O)c1c(N2Cc3cc4c(cc3C2=O)OC(F)(F)O4)nc(-c2cnn(CC3CC3)c2)n1C [Compound P9, 6-[2-[1-(cyclopropylmethyl)pyrazol-4-yl]-5-ethylsulfonyl-1-methyl-imidazol-4-yl]-2,2-difluoro-5H-[1,3]dioxolo[4,5-f]isoindol-7-one]
≥ 80%: percent control (mortality, anti-feedant effect or growth inhibition) at 200 ppm [2] | percent effect (mortality or growth inhibition) at 200 ppm [6] | percent effect (mortality or growth inhibition) at 200 ppm [7] | mortality at 200 ppm [8] | percent effect (mortality or growth inhibition) at 200 ppm [3] | percent control (mortality, anti-feedant effect or growth inhibition) at 200 ppm [4] | mortality at 24 ppm [9]

CCS(=O)(=O)c1c(N2Cc3cc4c(cc3C2=O)OC(F)(F)O4)nc(-c2cnn(C(F)F)c2)n1C [Compound P20, 6-[2-[1-(difluoromethyl)pyrazol-4-yl]-5-ethylsulfonyl-1-methyl-imidazol-4-yl]-2,2-difluoro-5H-[1,3]dioxolo[4,5-f]isoindol-7-one]
≥ 80%: mortality at 200 ppm [1] | percent control (mortality, anti-feedant effect or growth inhibition) at 200 ppm [2] | percent effect (mortality or growth inhibition) at 200 ppm [6] | percent effect (mortality or growth inhibition) at 200 ppm [7] | percent effect (mortality or growth inhibition) at 200 ppm [3] | percent control (mortality, anti-feedant effect or growth inhibition) at 200 ppm [4]

CCS(=O)(=O)c1c(N2Cc3cc4c(cc3C2=O)OC(F)(F)O4)nc(C2CC2)n1C [Compound P24, 6-(2-cyclopropyl-5-ethylsulfonyl-1-methyl-imidazol-4-yl)-2,2-difluoro-5H-[1,3]dioxolo[4,5-f]isoindol-7-one]
≥ 80%: percent control (mortality, anti-feedant effect or growth inhibition) at 200 ppm [2] | percent effect (mortality or growth inhibition) at 200 ppm [6] | percent effect (mortality or growth inhibition) at 200 ppm [7] | mortality at 200 ppm [8] | percent effect (mortality or growth inhibition) at 200 ppm [3] | percent control (mortality, anti-feedant effect or growth inhibition) at 200 ppm [4] | mortality at 24 ppm [9]

CCS(=O)(=O)c1c(N2Cc3cc4c(cc3C2=O)OC(F)(F)O4)nc(-c2ncccn2)n1C [Compound P15, 6-(5-ethylsulfonyl-1-methyl-2-pyrimidin-2-yl-imidazol-4-yl)-2,2-difluoro-5H-[1,3]dioxolo[4,5-f]isoindol-7-one]
≥ 80%: percent control (mortality, anti-feedant effect or growth inhibition) at 200 ppm [2] | percent effect (mortality or growth inhibition) at 200 ppm [6] | percent effect (mortality or growth inhibition) at 200 ppm [7] | mortality at 200 ppm [8] | percent effect (mortality or growth inhibition) at 200 ppm [3] | percent control (mortality, anti-feedant effect or growth inhibition) at 200 ppm [4] | mortality at 24 ppm [9]

CCS(=O)(=O)c1c(N2Cc3cc4c(cc3C2=O)OC(F)(F)O4)nc(-c2cnn(CC(F)(F)F)c2)n1C [Compound P14, 6-[5-ethylsulfonyl-1-methyl-2-[1-(2,2,2-trifluoroethyl)pyrazol-4-yl]imidazol-4-yl]-2,2-difluoro-5H-[1,3]dioxolo[4,5-f]isoindol-7-one]
≥ 80%: percent control (mortality, anti-feedant effect or growth inhibition) at 200 ppm [2] | percent effect (mortality or growth inhibition) at 200 ppm [6] | percent effect (mortality or growth inhibition) at 200 ppm [7] | mortality at 200 ppm [8] | percent effect (mortality or growth inhibition) at 200 ppm [3] | percent control (mortality, anti-feedant effect or growth inhibition) at 200 ppm [4] | mortality at 24 ppm [9]
